Measured values published in ChEMBL document CHEMBL4382287, “Design, Synthesis, and Biological Evaluation of 6-Benzoxazole Benzimidazole Derivatives with Antihypertension Activities” (ACS Med Chem Lett, 2019).
Activity calls are given as the source filed them. No cut-off for these calls is given here.

Legend:
Rattus norvegicus [1] = assay: Antihypertensive activity in rat spontaneous hypertensive model assessed as decrease in maximal mean blood pressure at 5 to 10 mg/kg, po qd measured up to 24 hrs; assay type: functional, organism-based
[2] = Displacement of [125I]-angiotensin-2 from AT1 receptor in Sprague-Dawley rat vascular smooth muscle cells after 150 mins by gamma counting method
Rattus norvegicus [3] = assay: Antihypertensive activity in rat spontaneous hypertensive model assessed as decrease in maximal mean blood pressure at 10 mg/kg, po qd measured up to 24 hrs; assay type: functional
[4] = Toxicity in rat spontaneous hypertensive model assessed as effect on heart rate at 5 to 10 mg/kg, po qd measured up to 24 hrs; assay type: organism-based; details: in vivo

Row | IC50 [2] [nM] | Structure (SMILES) | Activity (Rattus norvegicus [1]) | Ki [2] [nM] | Activity (Rattus norvegicus [3]) [mmHg] | Activity [4]
1 | 9.9 | CCCCc1nc2c(C)cc(-c3nc4c(C)cccc4o3)cc2n1Cc1cccc2c1ccn2-c1ccccc1C(=O)O | Active | 7.2 | – | –
2 | 13.6 | CCc1nc2c(C)cc(-c3nc4cccc(C)c4o3)cc2n1Cc1ccc2c(ccn2-c2ccccc2C(=O)O)c1 | Active | 9.8 | – | –
3 | 14.6 | CCCCc1nc(Cl)c(CO)n1Cc1ccc(-c2ccccc2-c2nnn[nH]2)cc1 [LOSARTAN] | – | 10.5 | 42.5 | –
4 | 10.7 | CCCCc1nc2c(C)cc(-c3nc4c(C)cccc4o3)cc2n1Cc1ccc2c(ccn2-c2ccccc2C(=O)O)c1 | Active | 7.7 | – | –
5 | 10.5 | CCCCc1nc2c(C)cc(-c3nc4cccc(C)c4o3)cc2n1Cc1cccc2c1ccn2-c1ccccc1C(=O)O | Active | 7.6 | – | –
6 | 12.1 | CCc1nc2c(C)cc(-c3nc4cccc(C)c4o3)cc2n1Cc1cccc2c1ccn2-c1ccccc1C(=O)O | Active | 8.8 | – | –
7 | 9.7 | CCCCc1nc2c(C)cc(-c3nc4cccc(C)c4o3)cc2n1Cc1ccc2c(ccn2-c2ccccc2C(=O)O)c1 | Active | 7 | – | –
8 | 4.4 | CCCc1nc2c(C)cc(-c3nc4c(C)cccc4o3)cc2n1Cc1ccc2c(ccn2-c2ccccc2C(=O)O)c1 | Active | 3.2 | 41.91 | Non-Toxic
9 | 5.3 | CCCc1nc2c(C)cc(-c3nc4cccc(C)c4o3)cc2n1Cc1cccc2c1ccn2-c1ccccc1C(=O)O | Active | 3.8 | – | –
10 | 12 | CCc1nc2c(C)cc(-c3nc4c(C)cccc4o3)cc2n1Cc1ccc2c(ccn2-c2ccccc2C(=O)O)c1 | Active | 8.7 | – | –
11 | 4 | CCCc1nc2c(C)cc(-c3nc4c(C)cccc4o3)cc2n1Cc1cccc2c1ccn2-c1ccccc1C(=O)O | Active | 2.9 | 54.57 | Non-Toxic
12 | 10.3 | CCc1nc2c(C)cc(-c3nc4c(C)cccc4o3)cc2n1Cc1cccc2c1ccn2-c1ccccc1C(=O)O | Active | 7.5 | – | –
13 | 5.6 | CCCc1nc2c(C)cc(-c3nc4cccc(C)c4o3)cc2n1Cc1ccc2c(ccn2-c2ccccc2C(=O)O)c1 | Active | 4 | – | –
